{"source": "patent US6514945B1", "about": "“Azalide antibiotic compositions” (Pfizer Inc., priority 2000, dated 2003)", "test": "Equilibration of azalide isomers I and II in heated aqueous acid, monitored by HPLC (Table 1)", "type": "physicochemical", "conditions": "isomer I prior to equilibration, for comparison", "experimental": "The equilibrium ratio of isomers I and II (about 90%±4% to about 10%±4%, respectively) was consistent for all experiments. […] Without being bound by any theory, lower equilibration temperatures or lower pH values generally result in substantially longer equilibration times. Equilibration time can also depend on, inter alia, the concentration of starting material, and the type and concentration of the acid used. Isomer I at a concentration of up to about 300 mg per mL of composition was heated to a temperature of about 40° C. to about 80° C. in the presence of one or more acids at a concentration of about 0.2 mmol to about 1.0 mmol per mL of mixture and with a sufficient quantity of hydrochloric acid to achieve a pH of about 6.5 to about 7.5 for up to about 20 hours to produce an equilibrium mixture of isomers that is about […] pure. Equilibration kinetic parameters and impurity levels for equilibration of azalide isomers I and II were determined as a function of pH, equilibration temperature, type of acid, and isomer I concentration and are listed in Table 1. […]\nEquilibrium mixtures of isomers were prepared and assayed as follows. […] 100 mL of solution were prepared in each of experiments 25C-28C, 200 mL of solution were prepared in each of experiments 29C-30C, and equilibration was monitored from 0.5 mL aliquots removed from the solutions. […]"}
{"smiles": "CCCNC[C@]1(O)[C@H](C)O[C@@H](O[C@H]2[C@H](C)[C@@H](OC3O[C@H](C)C[C@H](N(C)C)[C@H]3O)C(C)(O)C[C@@H](C)CN[C@H](C)[C@@H](O)[C@](C)(O)[C@@H](CC)OC(=O)[C@@H]2C)C[C@@]1(C)OC", "note": "(single isomer, unassigned) [isomer I]", "values": [{"measurement": "% Equilibrium mixture of isomers", "result": 98.39, "unit": "%"}, {"measurement": "% Impurities", "result": 1.61, "unit": "%"}]}
